{"source": "patent US6417384B1", "about": "“Radioiodinated phospholipid ether analogs and methods of using the same” (The Regents of the University of Michigan, priority 1999, dated 2002)", "type_in_all_cases": "in vivo, rat", "key": {"[1]": {"test_system": "rats bearing Walker-256 tumor", "test": "Biodistribution studies with Walker-256 carcinosarcoma", "settings": "i.v., Walker-256 tumor-bearing rats, mean ± SEM", "description": "The three radiolabelled compounds illustrated in FIG. 5, including the improved C-18 analog 18-(p-iodophenyl)octadecyl phosphocholine (Compound XVI) described in Example 2, were prepared and administered to two sets of female Sprague Dawley rats (Charles River, Portage, Mich.). One normal set was used as a control, and one set was inoculated with Walker-256 carcinosarcoma cells (5×10^6 cells) in 0.2 ml saline in the right hindlimb. The Walker carcinoma cell line was provided by Dr. James Varani of the Department of Pathology at the University of Michigan, and is an accepted cell line representative of effect in humans. See, e.g. Tayck et al., “Influence of the Walker 256 Carcinosarcoma on Muscle, Tumor, and Whole-Body Protein Synthesis and Growth Rate in the Cancer-Bearing Rat, Cancer Res. 46:5649-54 (1986).\nThe animals were used 6-8 days later when the tumor weight averaged 10 g. The radiolabelled compounds were dissolved in absolute ethanol (50-500 μl) and Tween-20 (0.1 ml/mg of compound) was added to the solution. Ethanol was removed by evaporation under a stream of nitrogen. Physiological saline or sterile water was added, to give a 2-3% Tween-20 solution which was subsequently mixed by vortex. The solubilized radiolabelled compounds (5-10 μCi, 0.3 ml) were administered intravenously via the tail vein to tumor bearing rats, and the animals were sacrificed by exsanguination while under ether anesthesia at the various time points. Blood samples were collected through cardiac puncture and selected tissues (liver, kidney, etc.) were removed, trimmed, blotted to remove excess blood and weighed. Large organs were thoroughly minced with scissors to obtain random representative tissue samples.\nFor the biodistribution experiments with 12-(p-iodophenyl)dodecyl phosphocholine, weighed tissue samples were counted with a well scintillation counter (85% counting efficiency). The concentration of radioactivity in each tissue was expressed as a percentage of administered dose per gram of tissue.\nTissue distribution was assessed at various times following administration of the radioiodinated chain length isomers. The results are expressed as the mean % administered dose per gram±SEM (% Dose/g±SEM)."}, "[2]": {"test_system": "Dunning R3327 prostate tumor-bearing animals", "test": "Gamma camera scintigraphy studies with Dunning R3327 prostate tumor", "settings": ">40 μCi injected, 125I window, static fifteen-minute images", "description": "Comparative in vivo scintigaphic studies were also conducted using the C-12 analog 12-(p-iodophenyl)dodecyl phosphocholine and the C-18 analogs 18-(p-iodophenyl)octadecyl phosphocholine (Compound XVI) and 1-O-[18-(p-iodophenyl)octadecyl]-1,3-propanediol-3-phosphocholine (Compound XIV) utilized in Example 7. The imaging studies were performed on Dunning R3327 prostate tumor-bearing animals injected with >40 μCi of the radioiodinated phospholipid ether formulations described above. The anesthetized animals were imaged at selected times after injection on a gamma camera set to the ^125I window and outfitted with a low energy collimator. Static fifteen-minute images were obtained for each animal at the specified time. The results are illustrated in FIGS. 8A-8C."}, "[3]": {"test_system": "rats bearing Dunning (MATLyLu) prostate tumors", "test": "Biodistribution studies with Dunning prostate tumor", "settings": "i.v., Dunning MAT-LyLu prostate tumor-bearing rats, mean ± SEM", "description": "The three radiolabelled compounds illustrated in FIGS. 7A-7C, including the improved C-18 analogs 18-(p-iodophenyl)octadecyl phosphocholine (Compound XVI—FIG. 7B) and 1-O-[18-(p-iodophenyl)octadecyl]-1,3-propanediol-3-phosphocholine (Compound XIV—FIG. 7C) described in Examples 2 and 3, respectively, were prepared and administered to two sets of male Copenhagen rats (Harlan Sprague-Dawley, Indianapolis, Ind.). One group of normal animals was used as a control, and another group was inoculated with Dunning prostate tumor cells (1×10^6 MAT-LyLu cells) in 0.2 ml saline in the right hindlimb. The MAT-LyLu subline of the Dunning (R-3327) adenocarcinoma prostate tumor was provided by Dr. Ken Pienta of the Department of Urology at the University of Michigan, and is an accepted cell line representative of effect in humans. See, e.g., Pienta et al., “Inhibition of Spontaneous Metastasis in a Rat Prostrate Cancer Model by Oral Administration of Modified Citrus Pectin, J. Natl. Cancer Inst. 87:348-53 (1995).\nThe animals were maintained with free access to food and water until day 8-10. The radioiodinated phospholipid ether analog formulated in 2% Tween 20—sterile water (5-10 μCi, 0.3-0.4 ml, described above in Example 6) was administered intravenously into the tail vein of the tumor-bearing animals under metofane anesthesia. The animals were euthanized at selected time points after injection (n=3 per time point) and samples of blood, plasma and a variety of tissues including tumor and prostate are collected and analyzed for radioiodine content. Biodistribution values are calculated as the mean of the individual % administered dose per gram of tissue and % dose per organ values."}}}
{"substance": "12-(p-iodophenyl)dodecyl phosphocholine [C-12 Analog]", "values": [{"measurement": "mean % administered dose per gram, Adrenal", "setting": "[1]; 24 hr", "result": "0.33 ± 0.01", "unit": "% Dose/g"}, {"measurement": "mean % administered dose per gram, Adrenal", "setting": "[1]; 48 hr", "result": "0.29 ± 0.01", "unit": "% Dose/g"}, {"measurement": "mean % administered dose per gram, Blood", "setting": "[1]; Blood, 24 hr", "result": "0.27 ± 0.04", "unit": "% Dose/g"}, {"measurement": "mean % administered dose per gram, Blood", "setting": "[1]; Blood, 48 hr", "result": "0.27 ± 0.03", "unit": "% Dose/g"}, {"measurement": "blood levels", "setting": "[1]; Blood, 120 hours", "result": "0.22±0.03", "unit": "% Dose/g"}, {"measurement": "mean % administered dose per gram, Duodenum", "setting": "[1]; 24 hr", "result": "1.35 ± 0.13", "unit": "% Dose/g"}, {"measurement": "mean % administered dose per gram, Duodenum", "setting": "[1]; 48 hr", "result": "0.77 ± 0.06", "unit": "% Dose/g"}, {"measurement": "mean % administered dose per gram, Kidney", "setting": "[1]; 24 hr", "result": "4.10 ± 0.44", "unit": "% Dose/g"}, {"measurement": "mean % administered dose per gram, Kidney", "setting": "[1]; 48 hr", "result": "3.44 ± 0.08", "unit": "% Dose/g"}, {"measurement": "mean % administered dose per gram, Liver", "setting": "[1]; 24 hr", "result": "1.62 ± 0.17", "unit": "% Dose/g"}, {"measurement": "mean % administered dose per gram, Liver", "setting": "[1]; 48 hr", "result": "1.37 ± 0.01", "unit": "% Dose/g"}, {"measurement": "mean % administered dose per gram, Lung", "setting": "[1]; 24 hr", "result": "1.06 ± 0.04", "unit": "% Dose/g"}, {"measurement": "mean % administered dose per gram, Lung", "setting": "[1]; 48 hr", "result": "0.53 ± 0.01", "unit": "% Dose/g"}, {"measurement": "mean % administered dose per gram, Plasma", "setting": "[1]; 24 hr", "result": "0.39 ± 0.05", "unit": "% Dose/g"}, {"measurement": "mean % administered dose per gram, Plasma", "setting": "[1]; 48 hr", "result": "0.39 ± 0.05", "unit": "% Dose/g"}, {"measurement": "mean % administered dose per gram, Tumor", "setting": "[1]; 24 hr", "result": "2.99 ± 0.34", "unit": "% Dose/g"}, {"measurement": "mean % administered dose per gram, Tumor", "setting": "[1]; 48 hr", "result": "1.84 ± 0.09", "unit": "% Dose/g"}, {"measurement": "tumor localization in gamma camera scintigraphy images", "setting": "[2]", "result": "tumor was barely visible"}, {"measurement": "mean % administered dose per gram, Adrenal", "setting": "[3]; 24 hr", "result": "0.29 ± 0.01", "unit": "% Dose/g"}, {"measurement": "mean % administered dose per gram, Adrenal", "setting": "[3]; 48 hr", "result": "0.23 ± 0.01", "unit": "% Dose/g"}, {"measurement": "mean % administered dose per gram, Blood", "setting": "[3]; 24 hr", "result": "0.23 ± 0.02", "unit": "% Dose/g"}, {"measurement": "mean % administered dose per gram, Blood", "setting": "[3]; 48 hr", "result": "0.22 ± 0.01", "unit": "% Dose/g"}, {"measurement": "mean % administered dose per gram, Kidney", "setting": "[3]; 24 hr", "result": "4.45 ± 0.27", "unit": "% Dose/g"}, {"measurement": "mean % administered dose per gram, Kidney", "setting": "[3]; 48 hr", "result": "3.38 ± 0.43", "unit": "% Dose/g"}, {"measurement": "mean % administered dose per gram, Liver", "setting": "[3]; 24 hr", "result": "1.27 ± 0.02", "unit": "% Dose/g"}, {"measurement": "mean % administered dose per gram, Liver", "setting": "[3]; 48 hr", "result": "1.05 ± 0.03", "unit": "% Dose/g"}, {"measurement": "mean % administered dose per gram, Lung", "setting": "[3]; 24 hr", "result": "0.48 ± 0.03", "unit": "% Dose/g"}, {"measurement": "mean % administered dose per gram, Lung", "setting": "[3]; 48 hr", "result": "0.33 ± 0.02", "unit": "% Dose/g"}, {"measurement": "mean % administered dose per gram, Plasma", "setting": "[3]; 24 hr", "result": "0.32 ± 0.03", "unit": "% Dose/g"}, {"measurement": "mean % administered dose per gram, Plasma", "setting": "[3]; 48 hr", "result": "0.32 ± 0.01", "unit": "% Dose/g"}, {"measurement": "mean % administered dose per gram, Tumor", "setting": "[3]; 24 hr", "result": "0.37 ± 0.03", "unit": "% Dose/g"}, {"measurement": "mean % administered dose per gram, Tumor", "setting": "[3]; 48 hr", "result": "0.30 ± 0.01", "unit": "% Dose/g"}]}
